{"source": "patent US6613506B1", "about": "“Compositions and methods for inhibiting human immunodeficiency virus infection by down-regulating human cellular genes” (Subsidiary No. 3, Inc., priority 2000, dated 2003)", "key": {"[1]": {"system": "latent HIV provirus in OM10.1 cells", "assay": "Induction of latent HIV provirus by TNF-α in OM10.1 cells (CD4 retention, p24)", "assay_type": "cell-based, HIV-1", "method": "In order to determine p24 expression in HIV-infected cells, the cells were first washed twice with Assay Buffer. About 10^6 cells were suspended in 100 μL Assay Buffer, mixed with 2 mL of Ortho PermeaFix Solution (available from Ortho Diagnostics), and incubated for 40 min. at room temperature. After centrifugation at 1200 rpm for 4 min. at 4EC, the cells were resuspended in 2 mL Wash Buffer (500 mL PBS, 25 mL fetal bovine serum, 1.5% bovine serum albumin and 0.0055% EDTA) for 10 min. at room temperature. After centrifugation, the cells were resuspended in 50 ΦL Wash Buffer and mixed with 1:500 dilution of an IgG2a antibody for 20 min. at 4EC, followed by incubation with 5-10 ΦL of anti-p24 antibody (KC57-FITC, available from Coulter) for 30 min. at 4EC. The cells were then washed twice with Wash Buffer and analyzed by flow cytometry.\nOne strategy selected for GSEs which suppressed productive infection of cells by HIV. The second strategy selected for GSEs which suppressed induction of the latent provirus in OM10.1 cells. When OM10.1 cells were treated with TNF-α and stained with an antibody specific for the cell surface molecule CD4, a rapid loss of CD4 expression was observed (FIG. 1). In contrast, the vast majority of the uninduced OM10.1 cells retained CD4 expression. It is believed that activation of the latent virus in OM10.1 cells by TNF-α leads to the production of viral protein gp120, which binds to cytoplasmic CD4, thereby preventing its translocation to the cell surface. A diminution of CD4^+ OM10.1 cells also correlates with an increased production of viral protein p24 in the cells following TNF-α induction.\nOM10.1 cells were cultured in RPMI 1640 glucose-free media prior to and during incubation with NADH dehydrogenase inhibitors and TNF-á induction. The inhibitors were added to the cells followed by TNF-á induction 1-2 hours later. The expression of CD4 by the cells was assessed by anti-CD4 antibody staining and flow cytometry after 24 hour incubation at 37° C."}, "OM10.1 cells": {"system": "OM10.1 cells", "assay_type": "cell-based", "settings": "human, 24 h, 100 nM"}, "[2]": {"system": "human peripheral blood leukocytes (PBLs)", "assay": "Uninfected human PBL controls with mofarotene alone (CD4, p24, CD3)", "assay_type": "cell-based", "settings": "for % CD4^+ in population / % p24^− in CD4^− T population: HIV −; for % CD4^+ in population: CD3+ T cells of human PBLs; for % p24^− in CD4^− T population: human PBLs", "method": "(§1) Human peripheral blood leukocytes (PBLs) were isolated using Ficoll-Hypaque density gradient separation. Cells were washed twice and resuspended in RPMI+10% FBS+2% human AB serum+penicillin/streptomycin/glutamine+100 Units/mL of IL-2 at a concentration of 0.5×10^6 cells/mL. PBLs were then activated with phytohemagglutinin at 0.5 μg/mL and placed in a humidified incubator at 37° C./5% CO2. After two days of activation, 10^6 cells were infected with HIV-1SF33 at TCID50 of 1000, in the presence of various concentrations of mofarotene: 0 μM, 1 μM, 0.5 μM, 0.1 μM, and 0.05 μM. A separate set of uninfected samples under identical concentrations of mofarotene were also maintained as controls. The samples were analyzed by flow cytometry at day 4 and day 6 post infection. The cells were gated for CD3 expression (for T cells). Then the expression of CD4 and viral p24 and CD4 was examined by bivariate dot plot."}, "HIV-1SF33": {"system": "HIV-1SF33", "assay": "Productive infection of activated human PBLs with HIV-1SF33, flow cytometry of CD3+ T cells", "assay_type": "cell-based", "settings": "for % CD4^+ in population / % p24+ cells among CD4+ T cells: HIV +, day 6; for % CD4^+ in population: CD3+ T cells of human PBLs; for % p24+ cells among CD4+ T cells: human PBLs", "method": "as §1\nIn order to test the ability of a NADH dehydrogenase inhibitor to prevent productive infection of T cells by HIV, human PBLs were isolated and infected with HIVSF33 in the presence of various concentrations of mofarotene."}}}
{"smiles": "C/C(=C\\c1ccc(OCCN2CCOCC2)cc1)c1ccc2c(c1)C(C)(C)CCC2(C)C", "note": "[mofarotene, Mofarotene]", "values": [{"measurement": "cells that retained CD4 expression", "setting": "[1]; 100 nM of mofarotene, TNF-α-induced OM10.1 cells", "value": 80, "unit": "%"}, {"measurement": "inhibition of induction of latent HIV provirus (retention of CD4 expression)", "setting": "[1]; TNF-α-induced OM10.1 cells, 24 hour incubation, FIG. 5 / FIG. 6", "value": "inhibited HIV-1 induction at even lower concentrations"}, {"measurement": "intracellular p24 levels", "setting": "[1]; treated cells compared with untreated controls", "value": "suppressed intracellular p24 levels"}, {"measurement": "cells that remained viable", "setting": "OM10.1 cells", "value": "greater than 80%"}, {"measurement": "% CD4^+ in population", "setting": "[2]; mofarotene 0.05 μM, day 6", "value": 33, "unit": "%"}, {"measurement": "% p24^− in CD4^− T population", "setting": "[2]; mofarotene 0.05 μM, day 6", "value": 0, "unit": "%"}, {"measurement": "% CD4^+ in population", "setting": "[2]; mofarotene 0.1 μM, day 6", "value": 34, "unit": "%"}, {"measurement": "% p24^− in CD4^− T population", "setting": "[2]; mofarotene 0.1 μM, day 6", "value": 0, "unit": "%"}, {"measurement": "% CD4^+ in population", "setting": "[2]; mofarotene 0.5 μM, day 6", "value": 34, "unit": "%"}, {"measurement": "% p24^− in CD4^− T population", "setting": "[2]; mofarotene 0.5 μM, day 6", "value": 0, "unit": "%"}, {"measurement": "% CD4^+ in population", "setting": "[2]; mofarotene 1.0 μM, day 6", "value": 36, "unit": "%"}, {"measurement": "% p24^− in CD4^− T population", "setting": "[2]; mofarotene 1.0 μM, day 6", "value": 0, "unit": "%"}, {"measurement": "expression level of CD3 on the cell surface", "setting": "[2]; day 4", "value": "nor did it alter the expression level of CD3 on the cell surface"}, {"measurement": "percentage of CD4^+ T cells, mofarotene alone", "setting": "[2]; day 4", "value": "did not significantly alter the percentage of CD4^+ T cells"}, {"measurement": "expression level of CD3 on the cell surface", "setting": "[2]; day 6", "value": "did not alter the expression level of CD3 on the cell surface"}, {"measurement": "increase of the percentage of CD4^+ T cells in uninfected samples by mofarotene alone", "setting": "[2]; day 6, uninfected samples", "value": "up to 4%"}, {"measurement": "% CD4^+ in population", "setting": "HIV-1SF33; mofarotene 0.05 μM", "value": 18, "unit": "%"}, {"measurement": "% p24+ cells among CD4+ T cells", "setting": "HIV-1SF33; mofarotene 0.05 μM", "value": 20.5, "unit": "%"}, {"measurement": "% CD4^+ in population", "setting": "HIV-1SF33; mofarotene 0.1 μM", "value": 28, "unit": "%"}, {"measurement": "% p24+ cells among CD4+ T cells", "setting": "HIV-1SF33; mofarotene 0.1 μM", "value": 11.4, "unit": "%"}, {"measurement": "% CD4^+ in population", "setting": "HIV-1SF33; mofarotene 0.5 μM", "value": 24, "unit": "%"}, {"measurement": "% p24+ cells among CD4+ T cells", "setting": "HIV-1SF33; mofarotene 0.5 μM", "value": 12.5, "unit": "%"}, {"measurement": "% CD4^+ in population", "setting": "HIV-1SF33; mofarotene 1.0 μM", "value": 25, "unit": "%"}, {"measurement": "% p24+ cells among CD4+ T cells", "setting": "HIV-1SF33; mofarotene 1.0 μM", "value": 10, "unit": "%"}, {"measurement": "% p24+ cells among CD4+ T cells", "setting": "HIV-1SF33; mofarotene 1.0 μM, listed as Mofarotene", "value": 10, "unit": "%"}, {"measurement": "difference between HIV-infected PBLs with or without mofarotene", "setting": "HIV-1SF33; day 4 post-infection", "value": "little detectable difference"}, {"measurement": "depletion of CD4^+ T cells by HIV infection", "setting": "HIV-1SF33; day 6, 1 μM mofarotene", "value": "inhibited the depletion of CD4^+ T cells by HIV infection"}, {"measurement": "level of protection (percentage of p24+ CD4+ T cells and of CD4+ cells in CD3+ T cells) versus concentration", "setting": "HIV-1SF33; day 6, 1 to 0.05 μM", "value": "diminished with decreased concentrations of mofarotene"}]}
